Data set [1] concerns the target T1, NET (Rattus norvegicus, UniProt Q63380).
T1 construct: Cortex from rat brain was collected and homogenised; from tissue; host or cells: rat brain cortex homogenate/membranes
Kind of data set: In vitro determination of NET reuptake inhibition ([3H]Nixosetine binding, rat brain cortex membranes). Here is the method:
In vitro Determination of NET Reuptake Inhibition
Cortex from rat brain was collected and homogenised using an Ultra-Turrax T25 and a Dual homogeniser in ice-cold homogenising buffer containing Tris, NaCl and KCl (50 mM, 120 mM and 5 mM, respectively, pH 7.4) prior to dilution to an appropriate protein concentration optimised for specific and non-specific binding. […] Membrane-bound activity was detected by filtration through a Packard Filtermate harvester onto GF/B Unifilterplates, washed with ice-cold Tris-HCl buffer, containing NaCl and KCl (50 mM, 120 mM and 4 mM; pH 7.4; 6×0.5 ml). Filters were allowed to dry for 24 h before adding scintillation fluid. Scintillation fluid was allowed to saturate filters for 24 h before counting in a Topcount scintillation counter. Percentage specific bound and competition binding curves were calculated using S-Plus software (Insightful).

Here are results for 29 molecules from US7799785B2, “Substituted tetracyclic tetahydrofuran, pyrrolidine and tetrahydrothiophene derivatives” (Janssen Pharmaceutica NV, priority 2004, dated 2010).

T1 sequence (Q63380 1-617): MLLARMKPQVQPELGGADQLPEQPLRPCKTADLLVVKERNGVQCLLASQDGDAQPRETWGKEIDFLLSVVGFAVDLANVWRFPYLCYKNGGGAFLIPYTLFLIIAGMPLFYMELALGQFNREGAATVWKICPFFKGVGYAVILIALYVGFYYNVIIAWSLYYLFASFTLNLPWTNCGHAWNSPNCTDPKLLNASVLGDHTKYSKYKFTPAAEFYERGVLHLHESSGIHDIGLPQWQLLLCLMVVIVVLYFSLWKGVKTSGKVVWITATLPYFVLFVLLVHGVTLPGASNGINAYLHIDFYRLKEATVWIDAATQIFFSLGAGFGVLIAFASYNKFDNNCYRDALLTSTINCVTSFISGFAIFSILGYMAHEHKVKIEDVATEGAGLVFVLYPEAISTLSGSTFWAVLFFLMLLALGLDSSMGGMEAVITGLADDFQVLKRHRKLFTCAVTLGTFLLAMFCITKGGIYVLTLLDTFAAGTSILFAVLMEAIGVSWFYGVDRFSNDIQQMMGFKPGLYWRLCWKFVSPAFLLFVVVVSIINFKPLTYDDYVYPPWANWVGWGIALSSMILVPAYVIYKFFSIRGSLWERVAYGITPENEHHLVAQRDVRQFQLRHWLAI

As usually defined, the IC50 is the concentration that gives 50% inhibition. A higher IC50 goes with lower potency. In data set [1], `CN(C)CC1CO[C@@H]2c3cc(F)ccc3Cc3ccccc3[C@@H]12` (mixture of isomers) [compound 47, [(3aR,12bS)-11-fluoro-3,3a,8,12b-tetrahydro-2H-dibenzo[3,4:6,7]cyclohepta[1,2-b]furan-3-yl]-N,N-dimethylmethanamine] had an IC50 of 11 nM.

As for `CN(C)CC1CO[C@H]2c3cc(F)ccc3Cc3ccccc3[C@@H]12` (mixture of isomers) [compound 48, [(3aR,12bR)-11-fluoro-3,3a,8,12b-tetrahydro-2H-dibenzo[3,4:6,7]cyclohepta[1,2-b]furan-3-yl]-N,N-dimethylmethanamine], the IC50 in data set [1] was 224 nM.

The molecule `CC(=O)N1[C@@H](CN(C)C)C[C@@H]2c3ccccc3Cc3ccc(F)cc3[C@H]21` [36b, [(2R,3aR,12bS)-1-acetyl-11-fluoro-1,2,3,3a,8,12b-hexahydrodibenzo[3,4:6,7]-cyclohepta[1,2-b]pyrrol-2-yl]-N,N-dimethylmethanamine] showed an IC50 in data set [1] of 3890 nM.

For the molecule `CN(C)C[C@H]1C[C@@H]2c3ccccc3Cc3ccc(F)cc3[C@H]2N1` [37a, [(2R,3aR,12bS)-11-fluoro-1,2,3,3a,8,12b-hexahydrodibenzo[3,4:6,7]cyclohepta-[1,2-b]pyr-rol-2-yl]-N,N-dimethylmethanamine], the IC50 in data set [1] is 7.94 nM.

Regarding `OCCN1CCN(C[C@H]2C[C@@H]3c4ccccc4Cc4ccc(F)cc4[C@H]3N2)CC1` [43a, 2-(4-{[(2R,3aR,12bS)-11-fluoro-1,2,3,3a,8,12b-hexahydrodibenzo[3,4:6,7]-cyclohepta[1,2-b]pyrrol-2-yl]methyl}-1-piperazinyl)ethanol], the IC50 in data set [1] was over 10000 nM.

As for `CN1C[C@@H]2C[C@@H]3c4ccccc4Cc4ccc(F)cc4[C@H]3N2C1` [compound 1, (4aS,13bR,14aS)-6-fluoro-2-methyl-1,2,3,4a,9,13b,14,14a-octahydrodibenzo-[3′,4′:6′,7′]cyclohepta[1′,2′:4,5]pyrrolo[1,2-c]imidazole], the IC50 in data set [1] is 115 nM.

Regarding `Fc1ccc2c(c1)[C@@H]1[C@H](C[C@H]3CNC(=S)N31)c1ccccc1C2` [compound 3, (4aS,13bR,14aS)-6-fluoro-1,4a,9,13b,14,14a-hexahydrodibenzo[3′,4′:6′,7′]cycloheta[1′,2′:4,5]pyrrolo[1,2-c]imidazole-3(2H)-thione], the “NET Reuptake Inhibition” value in data set [1] stood at 5.24.

On to `CN1CC(=O)N2[C@@H](C[C@@H]3c4ccccc4Cc4ccc(F)cc4[C@H]32)C1` [compound 4, (5aS,14bR,15aS)-7-fluoro-2-methyl-1,2,3,5a,10,14b,15,15a-octahydro-4H-dibenzo[3′,4′:6′,7′]cyclohepta[1′,2′:4,5]pyrrolo[1,2-a]pyrazin-4-one], for which the “NET Reuptake Inhibition” value in data set [1] was under 5.

As for `CN(C)C[C@H]1C[C@@H]2c3ccccc3Cc3ccc(F)cc3[C@H]2N1C` [compound 5, [(2R,3aR,12bS)-11-fluoro-1-methyl-1,2,3,3a,8,12b-hexahydrodibenzo[3,4:6,7]-cyclohepta[1,2-b]pyrrol-2-yl]-N,N-dimethylmethanamine], the IC50 in data set [1] is 288 nM.

Take `CN1C[C@H]2C[C@@H]3c4ccccc4Cc4ccc(F)cc4[C@H]3N2C1=O` [compound 7, (4aS,13bR,14aR)-6-fluoro-2-methyl-1,4a,9,13b,14,14a-hexahydrodibenzo-[3′,4′:6′,7′]cyclohepta[1′,2′:4,5]pyrrolo[1,2-c]imidazol-3(2H)-one]: the IC50 in data set [1] is 891 nM.

On to `CSC1=NC[C@H]2C[C@@H]3c4ccccc4Cc4ccc(F)cc4[C@H]3N12` [compound 9, (4aS,13bR,14aR)-6-fluoro-3-(methylsulfanyl)-1,4a,9,13b,14,14a-hexahydrodibenzo[3′,4′:6′,7′]cyclohepta[1′,2′:4,5]pyrrolo[1,2-c]imidazole], for which, in data set [1], the IC50 was 3980 nM.

`COCC(=O)N1[C@@H](CN(C)C)C[C@@H]2c3ccccc3Cc3ccc(F)cc3[C@H]21` [compound 10, [(2R,3aR,12bS)-11-fluoro-1-(methoxyacetyl)-1,2,3,3a,8,12b-hexahydrodibenzo-[3,4:6,7]cyclohepta[1,2-b]pyrrol-2-yl]-N,N-dimethylmethanamine]: in data set [1], the IC50 is 4790 nM.

For the molecule `O=C1CNC[C@H]2C[C@@H]3c4ccccc4Cc4ccc(F)cc4[C@H]3N12` [compound 12, (5aS,14bR,15aR)-7-fluoro-1,2,3,5a,10,14b,15,15a-octahydro-4H-dibenzo[3′,4′:6′,7′]cyclohepta[1′,2′:4,5]pyrrolo[1,2-a]pyrazin-4-one], the IC50 in data set [1] was 3470 nM.

`O=C1NC[C@@H]2C[C@@H]3c4ccccc4Cc4ccc(F)cc4[C@H]3N12` [compound 15, (4aS,13bR,14aS)-6-fluoro-1,4a,9,13b,14,14a-hexahydrodibenzo[3′,4′:6′,7′]-cyclohepta[1′,2′:4,5]pyrrolo[1,2-c]imidazol-3(2H)-one] showed an IC50 in data set [1] of 2400 nM.

As to `CN1C[C@@H]2C[C@@H]3c4ccccc4Cc4ccc(F)cc4[C@H]3N2C1=O` [compound 16, (4aS,13bR,14aS)-6-fluoro-2-methyl-1,4a,9,13b,14,14a-hexahydrodibenzo-[3′,4′:6′,7′]cyclohepta[1′,2′:4,5]pyrrolo[1,2-c]imidazol-3(2H)-one], the IC50 in data set [1] is over 10000 nM.

`CN(C)C[C@H]1C[C@@H]2c3ccccc3Oc3ccc(F)cc3[C@H]2N1` [compound 17, [(2R,3aR,12bS)-11-fluoro-2,3,3a,12b-tetrahydro-1H-dibenzo[2,3:6,7]oxepino[4,5-b]pyrrol-2-yl]-N,N-dimethylmethanamine]: the IC50 in data set [1] was 7.41 nM.

For the molecule `OCCN1CCN(C[C@H]2C[C@@H]3c4ccccc4Oc4ccc(F)cc4[C@H]3N2)CC1` [compound 19, 2-(4-{[(2R,3aR,12bS)-11-fluoro-2,3,3a,12b-tetrahydro-1H-dibenzo[2,3:6,7]-oxepino[4,5-b]pyrrol-2-yl]methyl}-1-piperazinyl)ethanol], the IC50 in data set [1] was over 10000 nM.

As for `OC1CCN(C[C@H]2C[C@@H]3c4ccccc4Oc4ccc(F)cc4[C@H]3N2)C1` (stereo partly drawn) [compound 20, 1-{[(2R,3aR,12bS)-11-fluoro-2,3,3a,12b-tetrahydro-1H-dibenzo[2,3:6,7]oxepino-[4,5-b]pyrrol-2-yl]methyl}-3-pyrrolidinol], the IC50 in data set [1] is 417 nM.

The molecule `CN(C)C[C@@H]1C[C@@H]2c3ccccc3Cc3ccc(F)cc3[C@H]2S1(=O)=O` [compound 22, [(2S,3aR,12bS)-11-fluoro-1,1-dioxido-3,3a,8,12b-tetrahydro-2H-dibenzo[3,4:6,7]-cyclohepta[1,2-b]thien-2-yl]-N,N-dimethylmethanamine] had an IC50 in data set [1] of 4790 nM.

Take `CN(C)C[C@H]1C[C@@H]2c3ccccc3Cc3ccc(F)cc3[C@H]2S1` [compound 23, [(2R,3aR,12bS)-11-fluoro-3,3a,8,12b-tetrahydro-2H-dibenzo[3,4:6,7]cyclohepta-[1,2-b]thien-2-yl]-N,N-dimethylmethanamine]: the IC50 in data set [1] was 28.2 nM.

In turn, `CN(C)C[C@@H]1C[C@@H]2c3ccccc3Cc3ccc(F)cc3[C@H]2[S@@+]1[O-]` [compound 26, [(2S,3aR,12bS)-11-fluoro-1-oxido-3,3a,8,12b-tetrahydro-2H-dibenzo[3,4:6,7]-cyclohepta[1,2-b]thien-2-yl]-N,N-dimethylmethanamine] returned an IC50 in data set [1] of over 10000 nM.

Broadly, the melting point is the temperature of the solid-liquid transition. Regarding `O=C1CO[C@H]2c3cc(F)ccc3Cc3ccccc3[C@H]2C1` [compound 31, (4aR,13bR)-12-fluoro-4,4a,9,13b-tetrahydrodibenzo[3,4:6,7]cyclohepta[1,2-b]-pyran-3(2H)-one], the melting point lay within 146 to 148 °C.

The molecule `CN(C)[C@@H]1CO[C@H]2c3cc(F)ccc3Cc3ccccc3[C@H]2C1` [compound 32, (3S,4aR,13bR)-12-fluoro-N,N-dimethyl-2,3,4,4a,9,13b-hexahydrodibenzo[3,4:6,7]-cyclohepta[1,2-b]pyran-3-amine] showed an IC50 in data set [1] of 19.5 nM.

On to `CNC[C@H]1C[C@@H]2c3ccccc3Cc3ccc(F)cc3[C@H]2N1C=O` [compound 38, (2R,3aR,12bS)-11-fluoro-2-[(methylamino)methyll]-3,3a,8,12b-tetrahydrodibenzo-[3,4: 6,7]-cyclohepta[1,2-b]pyrrole-1(2H)-carbaldehyde], for which the IC50 in data set [1] is 490 nM.

In turn, `CN(C)C[C@H]1C[C@@H]2c3ccccc3Cc3ccc(F)cc3[C@H]2N1CCO` [compound 39, 2-((2R,3aR,12bS)-2-[(dimethylamino)methyl]-11-fluoro-3,3a,8,12b-tetrahydrodibenzo[3,4:6,7]cyclohepta[1,2-b]pyrrol-1(2H)-yl)ethanol] had an IC50 in data set [1] of 126 nM.

`COCCN1[C@@H](CN(C)C)C[C@@H]2c3ccccc3Cc3ccc(F)cc3[C@H]21` [compound 40, [(2R,3aR,12bS)-11-Fluoro-1-(2-methoxyethyl)-1,2,3,3a,8,12b-hexahydrodibenzo-[3,4:6,7]-cyclohepta[1,2-b]pyrrol-2-yl]-N,N-dimethylmethanamine] gave an IC50 in data set [1] of 479 nM.

`Fc1ccc2c(c1)[C@H]1N[C@@H](CN3CCOCC3)C[C@@H]1c1ccccc1C2` [compound 42, (2R,3aR,12bS)-11-fluoro-2-(4-morpholinylmethyl)-1,2,3,3a,8,12b-hexahydrodibenzo[3,4:6,7]cyclohepta[1,2-b]pyrrole]: the IC50 in data set [1] is 5500 nM.

Molecule `COC(=O)N1[C@@H](CN(C)C)CC[C@@H]2c3ccccc3Cc3ccc(F)cc3[C@H]21` [compound 45, Methyl(2R,4aR,13bS)-2-[(dimethylamino)methyl]-12-fluoro-2,3,4,4a,9,13b-hexahydro-1H-dibenzo[3,4:6,7]cyclohepta[1,2-b]pyridine-1-carboxylate] had an IC50 in data set [1] of 794 nM.

`CNC[C@H]1CC[C@@H]2c3ccccc3Cc3ccc(F)cc3[C@H]2O1` [compound 46, [(2R,4aR,13bS)-12-fluoro-2,3,4,4a,9,13b-hexahydrodibenzo[3,4:6,7]cyclohepta-[1,2-b]pyran-2-yl]-N-methylmethanamine]: in data set [1], the IC50 is 398 nM.
